Molecules are shown by their SMILES. Structures can show the parent of a compound that is named as a salt.

Sequence of human recombinant LRRK2 protein (Q5S007 whole entry): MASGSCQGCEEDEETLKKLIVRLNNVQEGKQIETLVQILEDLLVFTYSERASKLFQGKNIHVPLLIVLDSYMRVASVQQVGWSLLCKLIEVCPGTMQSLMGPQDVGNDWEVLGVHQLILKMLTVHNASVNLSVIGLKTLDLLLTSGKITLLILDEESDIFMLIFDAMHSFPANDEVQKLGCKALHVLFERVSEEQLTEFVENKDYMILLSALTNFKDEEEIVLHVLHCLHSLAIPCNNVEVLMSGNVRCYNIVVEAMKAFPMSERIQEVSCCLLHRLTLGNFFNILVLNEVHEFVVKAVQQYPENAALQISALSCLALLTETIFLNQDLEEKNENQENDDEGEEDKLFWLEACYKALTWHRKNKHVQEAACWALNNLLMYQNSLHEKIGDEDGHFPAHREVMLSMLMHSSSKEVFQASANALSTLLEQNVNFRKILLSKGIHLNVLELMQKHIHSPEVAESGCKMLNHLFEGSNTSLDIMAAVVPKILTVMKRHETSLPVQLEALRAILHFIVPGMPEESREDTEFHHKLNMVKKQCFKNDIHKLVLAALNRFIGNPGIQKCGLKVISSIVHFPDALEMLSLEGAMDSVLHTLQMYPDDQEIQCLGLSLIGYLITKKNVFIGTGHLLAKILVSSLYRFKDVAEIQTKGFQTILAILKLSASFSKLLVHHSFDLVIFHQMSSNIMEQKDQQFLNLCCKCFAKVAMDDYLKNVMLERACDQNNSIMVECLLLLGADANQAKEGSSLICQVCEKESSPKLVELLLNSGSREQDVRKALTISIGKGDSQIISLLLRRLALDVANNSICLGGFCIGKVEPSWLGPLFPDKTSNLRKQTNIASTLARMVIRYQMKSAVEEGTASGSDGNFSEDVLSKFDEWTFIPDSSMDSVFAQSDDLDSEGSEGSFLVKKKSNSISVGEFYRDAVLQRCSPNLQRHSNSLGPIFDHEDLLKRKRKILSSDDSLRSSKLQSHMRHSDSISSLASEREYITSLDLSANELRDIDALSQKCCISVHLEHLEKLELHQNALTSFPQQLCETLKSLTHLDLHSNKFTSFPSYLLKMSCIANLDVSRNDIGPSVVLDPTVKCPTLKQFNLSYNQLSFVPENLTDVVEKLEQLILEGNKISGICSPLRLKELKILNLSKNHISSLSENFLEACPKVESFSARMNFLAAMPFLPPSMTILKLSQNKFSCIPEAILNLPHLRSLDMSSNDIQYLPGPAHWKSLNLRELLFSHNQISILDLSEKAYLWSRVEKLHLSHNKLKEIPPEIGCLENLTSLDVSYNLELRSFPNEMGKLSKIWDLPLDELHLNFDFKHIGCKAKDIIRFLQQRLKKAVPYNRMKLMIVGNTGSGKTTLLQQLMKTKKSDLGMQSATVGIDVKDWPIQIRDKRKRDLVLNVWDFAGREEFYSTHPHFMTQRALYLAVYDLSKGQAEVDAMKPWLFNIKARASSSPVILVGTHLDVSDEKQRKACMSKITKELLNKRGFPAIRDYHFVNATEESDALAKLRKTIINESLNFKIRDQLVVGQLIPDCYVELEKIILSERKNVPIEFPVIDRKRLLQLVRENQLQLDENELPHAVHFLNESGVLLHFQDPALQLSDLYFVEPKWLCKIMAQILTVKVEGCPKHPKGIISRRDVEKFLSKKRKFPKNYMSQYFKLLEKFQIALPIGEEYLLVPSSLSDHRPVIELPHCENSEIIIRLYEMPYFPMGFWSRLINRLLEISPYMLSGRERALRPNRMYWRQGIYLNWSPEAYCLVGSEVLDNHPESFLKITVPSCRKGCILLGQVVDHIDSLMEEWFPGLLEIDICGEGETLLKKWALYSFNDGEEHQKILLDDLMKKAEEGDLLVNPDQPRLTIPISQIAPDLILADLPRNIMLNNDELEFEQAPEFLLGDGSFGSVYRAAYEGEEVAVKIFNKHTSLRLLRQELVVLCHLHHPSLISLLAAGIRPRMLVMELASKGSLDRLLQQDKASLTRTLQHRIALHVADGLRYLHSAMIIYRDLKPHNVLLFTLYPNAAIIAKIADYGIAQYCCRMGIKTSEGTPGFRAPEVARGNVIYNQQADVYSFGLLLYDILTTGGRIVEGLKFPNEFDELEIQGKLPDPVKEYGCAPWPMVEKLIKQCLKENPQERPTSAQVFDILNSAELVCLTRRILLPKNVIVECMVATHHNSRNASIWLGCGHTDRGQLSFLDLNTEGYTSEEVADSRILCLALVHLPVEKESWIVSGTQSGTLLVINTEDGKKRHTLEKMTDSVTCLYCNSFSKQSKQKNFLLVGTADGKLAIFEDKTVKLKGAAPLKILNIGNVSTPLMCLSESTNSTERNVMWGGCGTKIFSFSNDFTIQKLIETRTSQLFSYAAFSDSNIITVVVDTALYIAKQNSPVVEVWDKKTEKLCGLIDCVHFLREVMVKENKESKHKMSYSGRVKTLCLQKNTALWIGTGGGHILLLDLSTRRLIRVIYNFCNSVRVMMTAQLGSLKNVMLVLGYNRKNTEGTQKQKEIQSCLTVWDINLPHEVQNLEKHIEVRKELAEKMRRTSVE

For the assay, the target named is human recombinant LRRK2 protein (Homo sapiens, UniProt Q5S007). In words: LRRK2 kinase activity assay (ADP-Glo, LRRKtide peptide). Format: biochemical. The following applies: human recombinant LRRK2 wt, LRRKtide peptide and ATP, 1 h at 37° C. As for the experimental part:
The inhibition of LRRK2 kinase was assessed using human recombinant LRRK2 protein in an in vitro peptide-based kinase assay.
LRRK2 Kinase reactions were carried out in 384-well white polystyrene plates in a final volume of 6 μl using ADP-Glo™ Kinase Assay kit (Promega Corp.). Compound and substrates (LRRKtide peptide and ATP) in assay buffer were first dispensed in wells. Kinase reaction was then started by the addition of human recombinant LRRK2 protein. After 1 h-incubation at 37° C., the enzymatic reactions was stopped by the addition of 6 μl of ADP-Glo Reagent-1 and an additional 40-minutes incubation at 23° C. (residual ATP depletion). A final 30-minutes incubation after 12 μL reagent-2 addition (ADP to ATP conversion and luciferin/luciferase reaction) was performed before luminescent signal acquisition (EnVision™ multimode plate reader—PerkinElmer, Inc.). Data from 10 individual concentrations of tested compounds (N=2) were fitted (XLfit™—ID Business Solutions Ltd) to deliver IC50s (compound concentration leading to 50% inhibition of reference enzymatic activity).
The compounds are dissolved to 5 mM in DMSO. When needed, solutions are sonicated in a bath sonicator.
Table 2 provides the pIC50 values of the compounds according to the invention, obtained using the above mentioned kinase assay. Activities are represented as +++, ++ and +, having the following meanings: • «+++» means an IC50<10 nM • «++» means an IC50<100 nM • «+» means an IC50<1 μM • «−» means an IC50>1 μM
As to `C[C@@H]1COCCOCCn2ncc(n2)-c2n[nH]c3ccc(cc23)O1` [Example 71, (13R)-13-methyl-8,11,14-trioxa-4,5,19,20,23-pentaazatetracyclo[13.5.2.1^2,5.0^18,21]tricosa-1(20),2(23),3,15(22),16,18(21)-hexaene], the IC50 was below 100 nM.

As for `C[C@@H]1NC(=O)COc2cccc(c2)-c2n[nH]c3ccc(cc23)OC[C@H]1F` [Example 183, (11S,12S)-12-fluoro-11-methyl-7,14-dioxa-10,19,20-triazatetracyclo[13.5.2.1^2,6.0^18,21]tricosa-1(20),2,4,6(23),15,17,21-heptaen-9-one], the IC50 was below 100 nM.

As for `COCC1CCOc2ccc3[nH]nc(c3c2)-c2cccc(c2)OCC(=O)N1` (single isomer, unassigned) [Example 150, (11S) or (11R)-11-(methoxymethyl)-7,14-dioxa-10,19,20-triazatetracyclo[13.5.2.1^2,6.0^18,21]tricosa-1(20),2(23),3,5,15,17,21-heptaen-9-one], the IC50 was below 100 nM.

`Clc1cc2cc(c1)-c1n[nH]c3ccc(cc13)OCCCNCCO2` [Example 143, 4-chloro-7,14-dioxa-10,19,20-triazatetracyclo[13.5.2.1^2,6.0^18,21]tricosa-1(20),2,4,6(23),15,17,21-heptaene]: the IC50 was below 10 nM.

On to `C[C@H]1CCOCCOc2nccc(n2)-c2n[nH]c3ccc(cc23)N1` [Example 30, (13S)-13-methyl-7,10-dioxa-5,14,19,20,23-pentaazatetracyclo[13.5.2.1^2,6.0^18,21]tricosa-1(20),2(23),3,5,15(22),16,18(21)-heptaene], for which the IC50 is below 100 nM.

Consider `O=C1COc2cc(cc(N3C[C@@H](F)[C@H](F)C3)c2)-c2n[nH]c3ccc(cc23)OCCCN1` [Example 216, 4-[(3R,4R)-3,4-difluoropyrrolidin-1-yl]-7,14-dioxa-10,19,20-triazatetracyclo[13.5.2.1^2,6.0^18,21]tricosa-1(20),2(23),3,5,15,17,21-heptaen-9-one], for which the IC50 was below 10 nM.

Take `C[C@H]1CCNC[C@H](C)Oc2cncc(c2)-c2n[nH]c3ccc(cc23)O1` (single isomer, unassigned) [Example 230, (8S or 8R,13S)-8,13-dimethyl-7,14-dioxa-4,10,19,20-tetraazatetracyclo[13.5.2.1^2,6.0^18,21]tricosa-1(20),2,4,6(23),15(22),16,18(21)-heptaene]: the IC50 is below 100 nM.

Consider `C[C@@H]1COCCOCCn2ccc(n2)-c2n[nH]c3ccc(cc23)O1` [Example 83, (13R)-13-methyl-8,11,14-trioxa-5,19,20,23-tetraazatetracyclo[13.5.2.1^2,5.0^18,21]tricosa-1(20),2(23),3,15(22),16,18(21)-hexaene], for which the IC50 was below 1000 nM.

For the compound `C[C@H]1COCCOCCOc2ccc3[nH]nc(c3c2)-c2cnn1c2` [Example 64, (6S)-6-methyl-8,11,14-trioxa-4,5,19,20-tetraazatetra cyclo[13.5.2.1^2,5.0^18,21]tricosa-1(20),2(23),3,15(22),16,18(21)-hexaene], the IC50 was below 10 nM.

Consider `C[C@@H]1COCCO[C@@H](C)c2cncc(c2)-c2n[nH]c3ccc(cc23)O1` [Example 14, (7S,13R)-7,13-dimethyl-8,11,14-trioxa-4,19,20-triazatetracyclo[13.5.2.1^2,6. 0^18,21]tricosa-1(20),2(23),3,5,15(22),16,18(21)-heptaene hydrochloride], for which the IC50 was below 100 nM.

For `FCC1CCOc2ccc3[nH]nc(c3c2)-c2cccc(c2)OCCN1` (stereo not drawn) [Example 155, 11-(fluoromethyl)-7,14-dioxa-10,19,20-triazatetracyclo [13.5.2.1^2,6.0^18,21]tricosa-1(20),2,4,6(23),15,17,21-heptaene], the IC50 is below 100 nM.

As for `C[C@@H]1CCOCC[C@H](C)n2cc(cn2)-c2n[nH]c3ccc(cc23)O1` [Example 36, (6S,12R)-6,12-dimethyl-9,13-dioxa-4,5,18,19-tetraazatetracyclo[12.5.2.1^2,5.0^17,20]docosa-1(19),2(22),3,14(21),15,17(20)-hexaene], the IC50 was below 10 nM.

In the case of `CC1Oc2cncc(c2)-c2n[nH]c3ccc(cc23)OCCCN(C)C1=O` (stereo not drawn) [Example 160, 8,10-dimethyl-7,14-dioxa-4,10,19,20-tetraazatetracyclo [13.5.2.1^2,6.0^18,21]tricosa-1(20),2,4,6(23),15,17,21-heptaen-9-one], the IC50 was below 100 nM.

Take `C[C@@H]1CCNC(=O)COc2cc(cc(N3CCOCC3)c2)-c2n[nH]c3ccc(cc23)O1` [Example 172, (13R)-13-methyl-4-(morpholin-4-yl)-7,14-dioxa-10,19,20-triazatetracyclo[13.5.2.1^2,6.0^18,21]tricosa-1(20),2(23),3,5,15,17,21-heptaen-9-one]: the IC50 is below 10 nM.

Consider `O=C1COc2cc(Br)cc(c2)-c2n[nH]c3ccc(cc23)OCCCN1` [Example 203, 4-bromo-7,14-dioxa-10,19,20-triazatetracyclo[13.5.2.1^2,6.0^18,21]tricosa-1(20),2(23),3,5,15,17,21-heptaen-9-one], for which the IC50 was below 10 nM.

`CC1CCNCCOc2cncc(c2)-c2n[nH]c3ccc(cc23)O1` (stereo not drawn) [Example 159, 13-methyl-7,14-dioxa-4,10,19,20-tetraazatetracyclo[13.5.2.1^2,6.0^18,21]tricosa-1(20),2,4,6(23),15,17,21-heptaene]: the IC50 is below 10 nM.

Regarding `C[C@@H]1CCNCCOc2cncc(c2)-c2n[nH]c3ccc(cc23)O1` [Example 163, (13R)-13-methyl-7,14-dioxa-4,10,19,20-tetraazatetracyclo[13.5.2.1^2,6.0^18,21]tricosa-1(20),2,4,6(23),15(22),16,18(21)-heptaene], the IC50 is below 10 nM.

As to `c1cc2[nH]nc3c2cc1OCCNCCCOc1cc-3cc(N2CCOCC2)c1` [Example 236, 4-(morpholin-4-yl)-7,14-dioxa-11,19,20-triazatetracyclo [13.5.2.1^2,6.0^18,21]tricosa-1(20),2,4,6(23),15,17,21-heptaene], the IC50 was below 10 nM.

For `CC1CN(C)CCCOc2ccc3[nH]nc(c3c2)-c2cncc(c2)O1` (stereo not drawn) [Example 161, 8,10-dimethyl-7,14-dioxa-4,10,19,20-tetraazatetracyclo [13.5.2.1^2,6.0^18,21]tricosa-1(20),2,4,6(23),15,17,21-heptaene], the IC50 was below 100 nM.

For the compound `C[C@H]1CCOCCCn2ncc(n2)-c2n[nH]c3ccc(cc23)O1` [Example 92, (12S)-12-methyl-9,13-dioxa-4,5,18,19,22-pentaazatetracyclo[12.5.2.1^2,5.0^17,20]docosa-1(19),2(22),3,14(21),15,17(20)-hexaene], the IC50 was below 10 nM.

`COC1COCCOC[C@@H](C)Oc2ccc3[nH]nc(c3c2)-c2cnn1c2` (stereo partly drawn) [Example 95, (13R)-6-methoxy-13-methyl-8,11,14-trioxa-4,5,19,20-tetraazatetracyclo [13.5.2.1^2,5.0^18,21]tricosa-1(20),2(23),3,15(22),16,18(21)-hexaene]: the 50% inhibitory concentration (IC50) is below 100 nM.

Consider `COC1CN(c2cc3nc(n2)O[C@H](C)COCC[C@H](C)Oc2ccc4[nH]nc-3c4c2)C1` [Example 44, (8R,13S)-4-(3-methoxyazetidin-1-yl)-8,13-dimethyl-7,10,14-trioxa-5,19,20, 23-tetraazatetracyclo[13.5.2.1^2,6.0^18,21]tricosa-1(20),2(23),3,5,15(22),16, 18(21)-heptaene], for which the half-inhibitory concentration (IC50) was below 10 nM.

As to `CN1CCCOc2ccc3[nH]nc(c3c2)-c2cncc(c2)OC(C)(C)C1=O` [Example 197, 8,8,10-trimethyl-7,14-dioxa-4,10,19,20-tetraazatetracyclo[13.5.2.1^2,6.0^18,21]tricosa-1(20),2(23),3,5,15(22),16,18(21)-heptaen-9-one], the IC50 was below 100 nM.

Regarding `C[C@@H]1COCC[C@H](C)Oc2ccc3[nH]nc(c3c2)-c2cncc(c2)O1` [Example 21, (8R,13S)-8,13-dimethyl-7,10,14-trioxa-4,19,20-triazatetracyclo[13.5.2.1^2,6.0^18,21]tricosa-1(20),2(23),3,5,15(22),16,18(21)-heptaene], the IC50 was below 10 nM.

Turning to `C[C@@H]1OCCOCCn2cc(cn2)-c2n[nH]c3ccc(cc23)O[C@H]1C` [Example 114, (12S,13S)-12,13-dimethyl-8,11,14-trioxa-4,5,19,20-tetraazatetracyclo [13.5.2.1^2,5.0^18,21]tricosa-1(20),2(23),3,15(22),16,18(21)-hexaene], the IC50 was below 10 nM.

As for `c1cc2[nH]nc3c2cc1OCCCNCC1(CC1)Oc1cncc-3c1` [Example 157, 7′,14′-dioxa-4′,10′,19′,20′-tetraazaspiro[cyclopropane-1,8′-tetracyclo[13.5.2.1^2,6.0^18,21]tricosane]-1′(20′),2′(23′),3′,5′,15′,17′,21′-heptaene], the IC50 was below 10 nM.

As to `O=C1COc2cncc(c2)-c2n[nH]c3ccc(cc23)OCC(F)(F)CN1` [Example 202, 12,12-difluoro-7,14-dioxa-4,10,19,20-tetraazatetracyclo [13.5.2.1^2,6.0^18,21]tricosa-1(20),2,4,6(23),15,17,21-heptaen-9-one], the IC50 is below 10 nM.
